From patent publication US9029337B2, “Modulation of factor 7 expression” (Isis Pharmaceuticals, Inc., priority 2007, dated 2015) come the findings set out here.

Strand notation (5' to 3'): a small letter for the sugar, then the base; units joined by * are phosphorothioate-linked, units joined directly phosphodiester-linked; [ ] holds rarer units or linkages, { } end groups; capitals alone tell only the bases. e = 2'-O-(2-methoxyethyl) (MOE); [5mC] = 5-methylcytosine; d = 2'-deoxy (DNA)

In the first series the test system is human Factor 7 mRNA. As to the kind of experiment: Antisense inhibition of human Factor 7 mRNA in HepB3 cells, 50 nM antisense oligonucleotide, lipofectin. It counts as cell-based. To be noted: Table 1, 50 nM, lipofectin, approximately 24 hours, relative to untreated control cells. In outline: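 After transfection of wells containing 4,000 cells, treatment ran for approximately 24 h. RIBOGREEN®-measured total RNA served for normalisation, and inhibition was calculated as a percentage of untreated control.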
On to “407924 (antisense eG*eA*eT*eT*eT*dG*dG*dT*dG*d[5mC]*d[5mC]*dA*dG*dG*dA*e[5mC]*eA*eG*eT*eT) [compound 407924]”, for which the “% Inhibition” value is 68%.

Turning to “407925 (antisense eG*eA*eA*eT*eA*dT*dA*dT*dG*dG*dG*dA*dT*dT*dT*eG*eG*eT*eG*e[5mC]) [compound 407925]”, the “% Inhibition” value came out at 64%.

For “407926 (antisense e[5mC]*e[5mC]*eA*eG*eG*dA*d[5mC]*dA*dA*d[5mC]*d[5mC]*dT*dT*dG*dG*e[5mC]*eA*e[5mC]*eT*e[5mC]) [compound 407926]”, the “% Inhibition” value was determined as 79%.

For the substance “407927 (antisense eA*eG*eG*eT*eA*dA*dG*dG*dA*dG*dG*d[5mC]*dT*d[5mC]*dA*eG*e[5mC]*eT*eG*eG) [compound 407927]”, the “% Inhibition” value amounted to 55%.

“407928 (antisense e[5mC]*eT*eT*eG*eG*d[5mC]*dT*dG*dA*dA*dG*dG*dG*dA*dG*eG*eT*eA*eA*eG) [compound 407928]”: the “% Inhibition” value was determined as 55%.

“407929 (antisense eG*e[5mC]*eA*eG*eA*dG*d[5mC]*dA*dG*d[5mC]*dA*dG*d[5mC]*d[5mC]*dT*eG*eA*eG*eG*e[5mC]) [compound 407929]”: the “% Inhibition” value came out at 53%.

Take “407930 (antisense e[5mC]*eA*eA*eT*eG*dA*dA*dG*dG*d[5mC]*dA*dG*dA*dG*d[5mC]*eA*eG*e[5mC]*eA*eG) [compound 407930]”: the “% Inhibition” value is listed as 70%.

Turning to “407931 (antisense e[5mC]*eT*eT*e[5mC]*eA*dG*dA*dG*dG*dA*d[5mC]*dA*dG*d[5mC]*dA*e[5mC]*eA*e[5mC]*eA*eT) [compound 407931]”, the “% Inhibition” value came to 56%.

“407932 (antisense eG*eA*eA*e[5mC]*e[5mC]*dA*dG*dA*dA*dA*dA*dG*dT*dG*dA*eG*eA*eG*e[5mC]*eT) [compound 407932]”: the “% Inhibition” value worked out at 55%.

Regarding “407933 (antisense eT*eG*eA*eT*eA*dA*dT*dG*dG*dA*dT*dA*dA*dG*dA*eA*e[5mC]*e[5mC]*eA*eG) [compound 407933]”, the “% Inhibition” value is reported as 58%.

As for “407934 (antisense e[5mC]*eT*eG*eA*eA*dG*dT*dG*dA*dA*dG*dA*dT*dG*dA*eT*eA*eA*eT*eG) [compound 407934]”, the “% Inhibition” value came to 45%.

In the case of “407937 (antisense eG*eA*eA*eG*eG*dG*dA*dG*dA*dA*dA*dT*dA*d[5mC]*dA*eT*eT*eT*eG*eG) [compound 407937]”, the “% Inhibition” value came out at 59%.

As to “407938 (antisense e[5mC]*eA*e[5mC]*e[5mC]*e[5mC]*dA*dG*d[5mC]*dG*dA*dA*dG*dG*dG*dA*eG*eA*eA*eA*eT) [compound 407938]”, the “% Inhibition” value is reported as 60%.

Consider “407940 (antisense eT*eG*eT*eG*eA*dA*dG*d[5mC]*dT*dG*dG*dG*dA*dA*dG*e[5mC]*eA*eG*eG*eT) [compound 407940]”, for which the “% Inhibition” value is listed as 62%.

In the case of “407941 (antisense eG*eA*eG*eA*e[5mC]*dG*d[5mC]*dA*dG*d[5mC]*d[5mC]*dG*dT*dT*dT*eA*eT*eT*eG*eT) [compound 407941]”, the “% Inhibition” value is 65%.

Regarding “407942 (antisense e[5mC]*eA*e[5mC]*eA*eG*dG*dT*dG*dT*dG*d[5mC]*dG*dG*dA*dG*eG*eA*eG*eA*e[5mC]) [compound 407942]”, the “% Inhibition” value came to 41%.

On to “407943 (antisense eG*e[5mC]*eA*eG*eG*d[5mC]*dA*d[5mC]*d[5mC]*dA*d[5mC]*dA*dG*dG*dT*eG*eT*eG*e[5mC]*eG) [compound 407943]”, for which the “% Inhibition” value came to 34%.

For “407944 (antisense e[5mC]*e[5mC]*eA*eG*eT*dG*dG*dG*dT*dG*dG*d[5mC]*dA*dG*dG*e[5mC]*eA*e[5mC]*e[5mC]*eA) [compound 407944]”, the “% Inhibition” value is 59%.

For “407945 (antisense eA*eA*eT*e[5mC]*eA*dT*dG*dG*dG*d[5mC]*dA*dA*d[5mC]*d[5mC]*d[5mC]*eA*eG*eT*eG*eG) [compound 407945]”, the “% Inhibition” value came to 56%.

In the case of “407946 (antisense eT*e[5mC]*e[5mC]*eA*eA*dA*dA*dA*dT*dG*dA*dA*dT*d[5mC]*dA*eT*eG*eG*eG*e[5mC]) [compound 407946]”, the “% Inhibition” value is 5%.

In the case of “407950 (antisense eA*eG*e[5mC]*eT*eT*d[5mC]*d[5mC]*dA*dT*dG*dT*dG*dA*dG*dG*eG*eT*eT*e[5mC]*eA) [compound 407950]”, the “% Inhibition” value is on record as 58%.

As for “407951 (antisense eA*eA*e[5mC]*eA*eG*d[5mC]*dT*dT*dT*dT*dG*dT*dT*dT*dT*eT*eA*eA*eA*eA) [compound 407951]”, the “% Inhibition” value was found to be 0%.

Regarding “407952 (antisense eG*eG*eA*eT*e[5mC]*d[5mC]*dT*dG*dG*dG*dA*dG*d[5mC]*dT*dA*e[5mC]*eA*eG*e[5mC]*e[5mC]) [compound 407952]”, the “% Inhibition” value stood at 41%.

For the substance “407953 (antisense eA*e[5mC]*eA*eT*e[5mC]*d[5mC]*dA*dA*dT*dT*d[5mC]*d[5mC]*dA*d[5mC]*dA*eG*eG*eA*eT*e[5mC]) [compound 407953]”, the “% Inhibition” value came out at 20%.

For “407954 (antisense e[5mC]*eA*eG*eG*eG*dA*dG*dA*dG*dA*dA*d[5mC]*dA*dT*d[5mC]*e[5mC]*eA*eA*eT*eT) [compound 407954]”, the “% Inhibition” value came out at 39%.

With “407955 (antisense eT*eG*eT*eG*eA*dA*dA*dT*dA*dT*d[5mC]*dA*dT*dT*dG*eA*e[5mC]*eA*eA*eG) [compound 407955]”, the “% Inhibition” value is reported as 3%.

For “407956 (antisense eA*eA*e[5mC]*eT*eT*dG*d[5mC]*dA*dT*dT*dT*dA*dG*dT*dG*eA*eT*eG*e[5mC]*eG) [compound 407956]”, the “% Inhibition” value was 19%.

As to “407957 (antisense eG*eG*e[5mC]*e[5mC]*eT*dG*dG*dG*dA*dA*d[5mC]*dT*dT*dG*d[5mC]*eA*eT*eT*eT*eA) [compound 407957]”, the “% Inhibition” value was 52%.

With “407958 (antisense eG*e[5mC]*e[5mC]*eG*eT*dG*d[5mC]*dT*dT*dG*d[5mC]*d[5mC]*dG*dG*dA*eG*eT*e[5mC]*eT*eG) [compound 407958]”, the “% Inhibition” value came out at 58%.

Consider “407959 (antisense eG*e[5mC]*eA*eG*eG*dG*dA*dT*dG*dG*d[5mC]*dA*dT*d[5mC]*dG*eA*eG*eT*e[5mC]*e[5mC]) [compound 407959]”, for which the “% Inhibition” value was 0%.

For “407960 (antisense eG*eT*eG*e[5mC]*e[5mC]*d[5mC]*dA*dG*dG*dA*d[5mC]*dG*dG*d[5mC]*d[5mC]*e[5mC]*eT*eG*e[5mC]*eA) [compound 407960]”, the “% Inhibition” value is listed as 53%.

With “407961 (antisense eA*eA*eG*eT*eA*dG*dA*dT*dG*dA*dT*dG*d[5mC]*d[5mC]*dT*eG*eA*eG*eT*eG) [compound 407961]”, the “% Inhibition” value is recorded as 34%.

As for “407962 (antisense eT*eT*eG*eG*eA*dA*dG*d[5mC]*dA*dG*d[5mC]*d[5mC]*d[5mC]*dA*d[5mC]*eG*eG*e[5mC]*eT*eG) [compound 407962]”, the “% Inhibition” value came out at 41%.

For “407963 (antisense eA*eG*eA*eG*e[5mC]*dA*dG*dG*dG*dT*dG*d[5mC]*d[5mC]*dT*dT*eG*eG*eA*eA*eG) [compound 407963]”, the “% Inhibition” value is 33%.

The series is the same for the next values; noted with them: lipofectin, 50 nM antisense oligonucleotide, approximately 24 hours, Factor 7 mRNA by real-time RT-PCR (RTS 2927), relative to untreated control.
With “416422 (antisense eA*eG*e[5mC]*eG*eA*d[5mC]*d[5mC]*d[5mC]*d[5mC]*dG*d[5mC]*d[5mC]*dT*dG*d[5mC]*eA*eG*e[5mC]*e[5mC]*eA) [compound 416422]”, the “% Inhibition” value is on record as 8%.

Turning to “416423 (antisense eG*eT*eG*eT*eT*dT*d[5mC]*dT*d[5mC]*d[5mC]*dT*d[5mC]*d[5mC]*dT*dG*eA*eG*eG*e[5mC]*e[5mC]) [compound 416423]”, the “% Inhibition” value was found to be 51%.

Take “416424 (antisense eG*eA*eG*eA*e[5mC]*d[5mC]*dA*dT*dG*dA*dT*dG*dA*dA*dA*eT*e[5mC]*eT*e[5mC]*eT) [compound 416424]”: the “% Inhibition” value was 27%.

In the case of “416425 (antisense eA*eA*eG*e[5mC]*eA*dG*dA*dA*dG*dG*d[5mC]*dA*dG*dA*dG*eG*eA*eG*e[5mC]*e[5mC]) [compound 416425]”, the “% Inhibition” value stood at 13%.

In the case of “416426 (antisense eA*eG*e[5mC]*e[5mC]*e[5mC]*dA*dA*dG*d[5mC]*dA*dG*dA*dA*dG*dG*e[5mC]*eA*eG*eA*eG) [compound 416426]”, the “% Inhibition” value came to 34%.

For the substance “416427 (antisense e[5mC]*e[5mC]*e[5mC]*eT*eG*dA*dA*dG*d[5mC]*d[5mC]*d[5mC]*dA*dA*dG*d[5mC]*eA*eG*eA*eA*eG) [compound 416427]”, the “% Inhibition” value is 5%.

Turning to “416428 (antisense e[5mC]*eT*eG*eG*eG*dT*dT*dA*d[5mC]*dG*dA*dA*dG*dA*d[5mC]*eT*eG*e[5mC]*eA*eG) [compound 416428]”, the “% Inhibition” value came out at 11%.

Turning to “416429 (antisense eA*e[5mC]*eG*e[5mC]*e[5mC]*dG*dT*dG*dG*dG*d[5mC]*dT*dT*d[5mC]*d[5mC]*eT*e[5mC]*e[5mC]*eT*eG) [compound 416429]”, the “% Inhibition” value worked out at 47%.

Take “416430 (antisense eG*e[5mC]*eA*eG*e[5mC]*dT*d[5mC]*d[5mC]*dT*d[5mC]*d[5mC]*dA*dG*dG*dA*eA*e[5mC]*eG*e[5mC]*eG) [compound 416430]”: the “% Inhibition” value was found to be 52%.

Turning to “416431 (antisense eA*eG*eG*eG*eA*dG*d[5mC]*d[5mC]*d[5mC]*dG*dG*d[5mC]*d[5mC]*dG*d[5mC]*eA*eG*e[5mC]*eT*e[5mC]) [compound 416431]”, the “% Inhibition” value is on record as 25%.

For “416432 (antisense eA*eG*e[5mC]*eA*e[5mC]*dT*dG*d[5mC]*dT*d[5mC]*d[5mC]*dT*d[5mC]*d[5mC]*dT*eT*eG*e[5mC]*eA*e[5mC]) [compound 416432]”, the “% Inhibition” value is on record as 44%.

“416433 (antisense eA*eG*eA*eA*eA*dT*d[5mC]*d[5mC]*dA*dG*dA*dA*d[5mC]*dA*dG*e[5mC]*eT*eT*e[5mC]*eG) [compound 416433]”: the “% Inhibition” value worked out at 0%.
